One may read the IC50 as the point on the concentration scale where inhibition reaches its midpoint.

The values below come from patent publication US11479551B2, “MTA-cooperative PRMT5 inhibitors” (Mirati Therapeutics, Inc., priority 2019, dated 2022).

This experiment addresses PRMT5/MEP50 complex (Homo sapiens (Human), UniProt O14744). Description: PRMT5:MEP50 FlashPlate Assay (histone H4 peptide substrate, plus and minus MTA). It is filed as biochemical. On the procedure:
The PRMT5 inhibitory activity of compounds of the present invention was determined using either a PRMT5:MEP50 FlashPlate Assay (Reaction Biology Corporation) or a PRMT5:MEP50 HotSpot Assay (Reaction Biology Corporation).
1. PRMT5:MEP50 FlashPlate Assay

[1] abbreviates: IC50 + 2 μM MTA (nM), in the presence of 2 μM MTA.
Where [2] appears, read: in the absence of MTA, read-out: IC50.

Molecules are shown by their SMILES. Read-outs that look alike come from different tables or passages of the source.

PRMT5/MEP50 complex, sequence (O14744 2-637): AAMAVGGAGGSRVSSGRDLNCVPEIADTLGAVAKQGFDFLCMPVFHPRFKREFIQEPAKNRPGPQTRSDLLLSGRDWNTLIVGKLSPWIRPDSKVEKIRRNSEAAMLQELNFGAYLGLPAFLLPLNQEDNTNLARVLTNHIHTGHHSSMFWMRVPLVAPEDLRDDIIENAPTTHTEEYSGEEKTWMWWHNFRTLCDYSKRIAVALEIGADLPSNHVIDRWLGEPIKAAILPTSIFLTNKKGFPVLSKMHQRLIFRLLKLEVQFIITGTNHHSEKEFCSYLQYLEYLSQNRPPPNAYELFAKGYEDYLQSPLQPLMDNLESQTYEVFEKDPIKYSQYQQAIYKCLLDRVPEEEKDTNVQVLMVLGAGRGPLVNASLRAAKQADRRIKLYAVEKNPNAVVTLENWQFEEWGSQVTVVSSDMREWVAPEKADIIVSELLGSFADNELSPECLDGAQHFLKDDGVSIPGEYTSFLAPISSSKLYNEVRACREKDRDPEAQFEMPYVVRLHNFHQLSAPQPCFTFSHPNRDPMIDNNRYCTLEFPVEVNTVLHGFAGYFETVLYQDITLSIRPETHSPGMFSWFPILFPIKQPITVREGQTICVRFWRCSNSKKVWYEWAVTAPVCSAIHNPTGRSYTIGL
PRMT5/MEP50 complex, sequence (Q9BQA1 2-342 partner): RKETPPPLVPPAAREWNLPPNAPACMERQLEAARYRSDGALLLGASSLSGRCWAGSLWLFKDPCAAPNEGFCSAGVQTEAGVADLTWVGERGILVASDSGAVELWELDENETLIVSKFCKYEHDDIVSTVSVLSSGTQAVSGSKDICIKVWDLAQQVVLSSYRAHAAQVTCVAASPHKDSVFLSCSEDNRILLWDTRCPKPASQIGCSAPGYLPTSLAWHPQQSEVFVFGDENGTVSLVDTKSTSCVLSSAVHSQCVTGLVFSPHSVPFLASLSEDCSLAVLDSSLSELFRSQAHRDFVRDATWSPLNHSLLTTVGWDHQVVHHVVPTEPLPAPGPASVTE

Regarding `NCc1n[nH]c(=O)c2ccc(-c3cncc4[nH]ccc34)cc12` [Example 3-55, 4-(aminomethyl)-6-(1H-pyrrolo[2,3-c]pyridin-4-yl)phthalazin-1(2H)-one], the IC50 worked out at 83 nM under setting [1] and 1870 nM under setting [2].

Consider `N#Cc1ccn(-c2cncc(-c3ccc4c(=O)[nH]nc(CN)c4c3)c2)n1` [Example 4-10, 1-(5-(4-(aminomethyl)-1-oxo-1,2-dihydrophthalazin-6-yl)pyridin-3-yl)-1H-pyrazole-3-carbonitrile], for which the IC50 is, setting by setting: under setting [1], 1000 nM; under setting [2], more than 100000 nM.

Take `NCc1n[nH]c(=O)c2ccc(-c3cncc(Oc4ccccn4)c3)cc12` [Example 4-63, 4-(aminomethyl)-6-(5-(pyridin-2-yloxy)pyridin-3-yl)phthalazin-1(2H)-one]: the IC50 stood at 58 nM under setting [1] and 1380 nM under setting [2].

Take `Cc1cncc(-c2ccc3c(=O)[nH]nc(CN)c3c2)c1` [Example 3-10, 4-(aminomethyl)-6-(5-methylpyridin-3-yl)phthalazin-1(2H)-one]: the IC50 was 100 nM under setting [1] and 3910 nM under setting [2].

As to `N#CCc1ccc2c(CN)n[nH]c(=O)c2c1` [Example 13-1, 2-[1-(aminomethyl)-4-oxo-3H-phthalazin-6-yl]acetonitrile], the IC50 was found to be 25000 nM under setting [1] and 89600 nM under setting [2].

`COc1ccn2c(-c3ccc4c(=O)[nH]nc(CN)c4c3)cnc2c1` [Example 4-19, 4-(aminomethyl)-6-(7-methoxyimidazo[1,2-a]pyridin-3-yl)phthalazin-1(2H)-one]: the IC50 was 380 nM under setting [1] and more than 100000 nM under setting [2].

For `Cc1cc(-c2ccc3c(=O)[nH]nc(CN)c3c2)[nH]n1` [Example 3-21, 4-(aminomethyl)-6-(5-methyl-1H-pyrazol-3-yl)phthalazin-1(2H)-one], the IC50 reads like this: under setting [1], 1800 nM; under setting [2], 39400 nM.

Consider `CN(C)c1cncc(-c2ccc3c(=O)[nH]nc(CN)c3c2)c1` [Example 4-53, 4-(aminomethyl)-6-(5-(dimethylamino)pyridin-3-yl)phthalazin-1(2H)-one], for which the IC50 is 55 nM under setting [1] and 1140 nM under setting [2].

`NCc1n[nH]c(=O)c2ccc(-c3cncc(Sc4cccc(Cl)c4)c3)cc12` [Example 4-56, 4-(aminomethyl)-6-(5-((3-chlorophenyl)thio)pyridin-3-yl)phthalazin-1(2H)-one]: the IC50 worked out at 3.8 nM under setting [1] and 107 nM under setting [2].

In the case of `CCc1cncc(-c2ccc3c(=O)[nH]nc(CN)c3c2)c1` [Example 3-13, 4-(aminomethyl)-6-(5-ethylpyridin-3-yl)phthalazin-1(2H)-one], the IC50 under setting [1] came to 110 nM and the IC50 under setting [2] came out at 1420 nM.

Regarding `CCN1CCn2ncc(-c3ccc4c(=O)[nH]nc(CN)c4c3)c2C1` [Example 4-80, 4-(aminomethyl)-6-(5-ethyl-4,5,6,7-tetrahydropyrazolo[1,5-a]pyrazin-3-yl)phthalazin-1(2H)-one], the IC50 by setting is: under setting [1], 58 nM; under setting [2], 1570 nM.

As for `N#Cc1cc(F)ccc1-c1cncc(-c2ccc3c(=O)[nH]nc(CN)c3c2)c1` [Example 8-5, 2-(5-(4-(aminomethyl)-1-oxo-1,2-dihydrophthalazin-6-yl)pyridin-3-yl)-5-fluorobenzonitrile], the IC50 reads like this: under setting [1], 23 nM; under setting [2], 691 nM.

Take `Cc1ccc(-c2c(-c3ccc4c(=O)[nH]nc(CN)c4c3)cnn2C)cc1` [Example 4-97, 4-(aminomethyl)-6-(1-methyl-5-(p-tolyl)-1H-pyrazol-4-yl)phthalazin-1(2H)-one]: the IC50 under setting [1] came to 1.6 nM and the IC50 under setting [2] turned out to be 49 nM.

`NCc1n[nH]c(=O)c2ccc(-c3cnc4cc(Cl)ccn34)cc12` [Example 4-28, 4-(aminomethyl)-6-(7-chloroimidazo[1,2-a]pyridin-3-yl)phthalazin-1(2H)-one]: the IC50 was found to be 140 nM under setting [1] and 6790 nM under setting [2].

In the case of `NCc1n[nH]c(=O)c2ccc(-c3cnc(C(F)(F)F)nc3)cc12` [Example 3-12, 4-(aminomethyl)-6-(2-(trifluoromethyl)pyrimidin-5-yl)phthalazin-1(2H)-one], the IC50 by setting is: under setting [1], 210000 nM; under setting [2], more than 1e+06 nM.

Turning to `Cc1ccccc1Sc1cncc(-c2ccc3c(=O)[nH]nc(CN)c3c2)c1` [Example 4-59, 4-(aminomethyl)-6-(5-(o-tolylthio)pyridin-3-yl)phthalazin-1(2H)-one], the IC50 under setting [1] was 2.1 nM and the IC50 under setting [2] amounted to 68 nM.

Consider `NCc1n[nH]c(=O)c2ccc(-c3cnc4ccc(F)cn34)cc12` [Example 4-21, 4-(aminomethyl)-6-(6-fluoroimidazo[1,2-a]pyridin-3-yl)phthalazin-1(2H)-one], for which the IC50 is 70 nM under setting [1] and 1970 nM under setting [2].

In the case of `Cc1ccc2ncc(-c3ccc4c(=O)[nH]nc(CN)c4c3)n2n1` [Example 4-17, 4-(aminomethyl)-6-(6-methylimidazo[1,2-b]pyridazin-3-yl)phthalazin-1(2H)-one], the IC50 under setting [1] stood at 150 nM and the IC50 under setting [2] amounted to 2050 nM.

As for `Cc1nc2ccc(Cl)nn2c1-c1ccc2c(=O)[nH]nc(CN)c2c1` [Example 4-14, 4-(aminomethyl)-6-(6-chloro-2-methylimidazo[1,2-b]pyridazin-3-yl)phthalazin-1(2H)-one], the IC50 is 7900 nM under setting [1] and more than 100000 nM under setting [2].

For `CC(C)N1CCn2ncc(-c3ccc4c(=O)[nH]nc(CN)c4c3)c2C1` [Example 4-81, 4-(aminomethyl)-6-(5-isopropyl-4,5,6,7-tetrahydropyrazolo[1,5-a]pyrazin-3-yl)phthalazin-1(2H)-one], the IC50 turned out to be 18 nM under setting [1] and 826 nM under setting [2].

Turning to `CN1CCn2ncc(-c3ccc4c(=O)[nH]nc(CN)c4c3)c2C1` [Example 4-11, 4-(aminomethyl)-6-(5-methyl-4,5,6,7-tetrahydropyrazolo[1,5-a]pyrazin-3-yl)phthalazin-1(2H)-one], the IC50 by setting is: under setting [1], 110 nM; under setting [2], 2400 nM.

In the case of `N#Cc1cncc(-c2ccc3c(=O)[nH]nc(CN)c3c2)c1` [Example 3-37, 5-(4-(aminomethyl)-1-oxo-1,2-dihydrophthalazin-6-yl)nicotinonitrile], the IC50 was 3200 nM under setting [1] and 72100 nM under setting [2].

Consider `NCc1n[nH]c(=O)c2ccc(-c3ccnnc3)cc12` [Example 3-2, 4-(aminomethyl)-6-(pyridazin-4-yl)phthalazin-1(2H)-one], for which the IC50 by setting is: under setting [1], 42000 nM; under setting [2], 10000 nM.

Consider `NCc1n[nH]c(=O)c2ccc(-c3cnn4c3CN(Cc3ccccc3)CC4)cc12` [Example 4-79, 4-(aminomethyl)-6-(5-benzyl-4,5,6,7-tetrahydropyrazolo[1,5-a]pyrazin-3-yl)phthalazin-1(2H)-one], for which the IC50 worked out at 27 nM under setting [1] and 930 nM under setting [2].

As to `NCc1n[nH]c(=O)c2ccc(-c3cncc(F)c3)cc12` [Example 3-41, 4-(aminomethyl)-6-(5-fluoropyridin-3-yl)phthalazin-1(2H)-one], the IC50 is, setting by setting: under setting [1], 1600 nM; under setting [2], 27500 nM.

`NCc1n[nH]c(=O)c2ccc(-c3cnc[nH]3)cc12` [Example 3-31, 4-(aminomethyl)-6-(1H-imidazol-5-yl)phthalazin-1(2H)-one]: the IC50 is, setting by setting: under setting [1], 80000 nM; under setting [2], more than 100000 nM.

For `N#Cc1ncccc1-c1ccc2c(=O)[nH]nc(CN)c2c1` [Example 4-7, 3-(4-(aminomethyl)-1-oxo-1,2-dihydrophthalazin-6-yl)picolinonitrile], the IC50 was 8400 nM under setting [1] and more than 100000 nM under setting [2].

As to `CC(C)c1cncc(-c2ccc3c(=O)[nH]nc(CN)c3c2)c1` [Example 3-14, 4-(aminomethyl)-6-(5-isopropylpyridin-3-yl)phthalazin-1(2H)-one], the IC50 under setting [1] was determined as 17 nM and the IC50 under setting [2] amounted to 413 nM.

`Cc1ccc(Sc2cncc(-c3ccc4c(=O)[nH]nc(CN)c4c3)c2)cc1` [Example 4-60, 4-(aminomethyl)-6-(5-(p-tolylthio)pyridin-3-yl)phthalazin-1(2H)-one]: the IC50 by setting is: under setting [1], 2.3 nM; under setting [2], 117 nM.

With `Cc1ncccc1-c1ccc2c(=O)[nH]nc(CN)c2c1` [Example 3-18, 4-(aminomethyl)-6-(2-methylpyridin-3-yl)phthalazin-1(2H)-one], the IC50 under setting [1] came out at 33000 nM and the IC50 under setting [2] was more than 1e+06 nM.

For `NCc1n[nH]c(=O)c2ccc(-c3cncc4ccccc34)cc12` [Example 3-54, 4-(aminomethyl)-6-(isoquinolin-4-yl)phthalazin-1(2H)-one], the IC50 was 64 nM under setting [1] and 1290 nM under setting [2].

In the case of `N#Cc1ccccc1Oc1cncc(-c2ccc3c(=O)[nH]nc(CN)c3c2)c1` [Example 7-2, 2-((5-(4-(aminomethyl)-1-oxo-1,2-dihydrophthalazin-6-yl)pyridin-3-yl)oxy)benzonitrile], the IC50 amounted to 16 nM under setting [1] and 246 nM under setting [2].

As for `Cc1cccc(Sc2cncc(-c3ccc4c(=O)[nH]nc(CN)c4c3)c2)c1` [Example 4-61, 4-(aminomethyl)-6-(5-(m-tolylthio)pyridin-3-yl)phthalazin-1(2H)-one], the IC50 is 3 nM under setting [1] and 149 nM under setting [2].

As to `Cc1ccccc1Oc1cncc(-c2ccc3c(=O)[nH]nc(CN)c3c2)c1` [Example 4-72, 4-(aminomethyl)-6-(5-(o-tolyloxy)pyridin-3-yl)phthalazin-1(2H)-one], the IC50 worked out at 3 nM under setting [1] and 73 nM under setting [2].

In the case of `N#Cc1ccn2c(-c3ccc4c(=O)[nH]nc(CN)c4c3)cnc2c1` [Example 4-35, 3-(4-(aminomethyl)-1-oxo-1,2-dihydrophthalazin-6-yl)imidazo[1,2-a]pyridine-7-carbonitrile], the IC50 is 1100 nM under setting [1] and more than 100000 nM under setting [2].

As for `NCc1n[nH]c(=O)c2ccc(-c3cnc4ccccc4c3)cc12` [Example 3-6, 4-(aminomethyl)-6-(quinolin-3-yl)phthalazin-1(2H)-one], the IC50 under setting [1] turned out to be 5100 nM and the IC50 under setting [2] amounted to 47100 nM.
